Three compounds from patent US4696928A, “Substituted dihydroimidazo[1,2-a]quinoxalines” (G. D. Searle & Co., priority 1985, dated 1987) can be followed below.

In experiment [1] the test system is Clostridium difficile NCIB 10666. The experiment in a line: MIC vs. panel of anaerobes. Type of experiment: cell-based. To be noted: Clostridioides difficile, NCIB10666.
In experiment [2] the test system is Bacteroides melanogenicus NCTC 9336. The experiment in a line: MIC vs. panel of anaerobes. The experiment is classed as cell-based. To be noted: NCTC9336; Bacteroides melanogenicus NCTC 9336; read-out: MIC.
Experiment [3] deals with Clostridium perfringens NCTC 523. In words: microbe, parasite or virus in culture. The experiment is classed as cell-based. Particulars: NCTC523.
Experiment [4] has as its system B. fragilis MZ-R ATCC 11295. In words: MIC/MBC broth microdilution, strain D. The experiment is classed as cell-based. Particulars: Bacteroides fragilis, ATCC11295, 48 h; for MBC: 99.9% reduction in viable count after 48 h. In general terms: In broth dilution the organism is exposed to a series of concentrations in liquid medium.
Another experiment has as its system B. fragilis WS-1. The experiment in a line: MIC/MBC broth microdilution, strain E. Type of experiment: cell-based, Bacteroides fragilis. Particulars: Bacteroides fragilis, WS1, 48 h; for MIC: 37° C., anaerobic, read-out: MIC; for MBC: 99.9% reduction in viable count after 48 h.
For experiment [5], the system named is Propionebacterium acnes NCTC 7337. The experiment in a line: MIC vs. panel of anaerobes. Type of experiment: cell-based.
For experiment [6], the system named is Fusobacterium necrophorum ATCC 11295. In words: MIC vs. panel of anaerobes. To be noted: ATCC11295. Type of experiment: cell-based.
In experiment [7] the test system is Peptostreptococcus anaerobicus. The experiment in a line: MIC vs. panel of anaerobes. To be noted: Peptostreptococcus anaerobicus; read-out: MIC. The experiment is classed as cell-based.
The subject of experiment [8] is Clostridium perfringens NCTC 8237. The experiment in a line: microbe, parasite or virus in culture. Particulars: NCTC8237. The experiment is classed as cell-based.
The test system of experiment [9] is Campylobacter fetus ss.jejuni ATCC 29428. The experiment in a line: MIC vs. panel of anaerobes. Particulars: ATCC29428. Type of experiment: cell-based.
The test system of another experiment is B. fragilis NCTC 10581. The experiment in a line: MIC/MBC broth microdilution, strain A. The experiment is classed as cell-based. Particulars: Bacteroides fragilis, NCTC10581, 48 h; for MIC: 37° C., anaerobic, read-out: MIC; for MBC: 99.9% reduction in viable count after 48 h.
For experiment [10], the system named is Clostridium difficile Cytotoxic 1. In words: MIC vs. panel of anaerobes. The experiment is classed as cell-based. To be noted: Clostridioides difficile.
The test system of experiment [11] is Propionebecterium acnes NCTC 737. In words: MIC vs. panel of anaerobes. The experiment is classed as cell-based.
A further experiment has as its system B. fragilis NCTC 9343. The experiment in a line: MIC/MBC broth microdilution, strain B. The experiment is classed as cell-based. Particulars: Bacteroides fragilis, NCTC9343, 48 h; for MIC: 37° C., anaerobic, read-out: MIC; for MBC: 99.9% reduction in viable count after 48 h.
In the next experiment the test system is B. Fragilis ATCC 23745. Particulars: Bacteroides fragilis, ATCC23745, in Mus musculus, po, 48 h, read-out: Dose giving 1 log reduction, p.o., after infection and twice daily for 2 days; 1 log (90%) reduction of CFU/ml liver homogenate vs untreated; compound of Example.
Another experiment relates to B. fragilis NCTC 9344. The experiment in a line: MIC/MBC broth microdilution, strain C. The experiment is classed as cell-based, Bacteroides fragilis. Particulars: Bacteroides fragilis, NCTC9344, 48 h; for MBC: 99.9% reduction in viable count after 48 h, read-out: MBC; for MIC: 37° C., anaerobic.
Setting [12] is: Clostridium difficile NCIB 10666, read-out: MIC.
The mark [13] stands for this setting: Fusobacterium necrophorum ATCC 11295, read-out: MIC.

As usually defined, the MBC is the lowest tested concentration that kills the bacteria rather than only halting them.

In brackets after ≈: the same amount, converted by molar mass. Like-named read-outs stand apart in the source and are kept apart here.

Consider `[O-][N+]1=C(c2ccccc2)C2=NCCN2c2cc(N3CCN(Cc4ccccc4)CC3)ccc21` [Example 6, 1,2-Dihydro-4-phenyl-8-(4-phenylmethylpiperazinyl)imidazo[1,2-a]quinoxaline5-oxide], for which the MIC is under 0.8 mg/L in experiment [1] (setting [12]); 50 mg/L (≈ 114 µM) in [2]; 12.5 mg/L (≈ 28.6 µM) in [3]; 25 mg/L (≈ 57.1 µM) in [4] (strain D (MZ-R), 48 h, 37° C., anaerobic, read-out: MIC); 25 mg/L (≈ 57.1 µM) in the experiment with B. fragilis WS-1; 50 mg/L (≈ 114 µM) in [5]. Besides, the MIC in experiment [6] (Fusobacterium necrophorum) amounted to 12.5 mg/L (≈ 28.6 µM); in experiment [7], 100 mg/L (≈ 229 µM); in experiment [8] it was 12.5 mg/L (≈ 28.6 µM); in experiment [9], 100 mg/L (≈ 229 µM); in the experiment with B. fragilis NCTC 10581 it was 25 mg/L (≈ 57.1 µM); in experiment [10] it was 3.1 mg/L (≈ 7.08 µM). Besides, the MIC in experiment [11] came to 50 mg/L (≈ 114 µM); in the experiment on B. fragilis NCTC 9343, 50 mg/L (≈ 114 µM); in the experiment with B. fragilis NCTC 9344 (48 h), 12.5 mg/L (≈ 28.6 µM). Also, the MBC in [4] (strain D (MZ-R)) was determined as 25 mg/L (≈ 57.1 µM); with B. fragilis WS-1, 25 mg/L (≈ 57.1 µM); against B. fragilis NCTC 10581 it was 25 mg/L (≈ 57.1 µM); against B. fragilis NCTC 9343, 50 mg/L (≈ 114 µM); with B. fragilis NCTC 9344, 25 mg/L (≈ 57.1 µM). Besides, the ED (1 log reduction) in the experiment on B. Fragilis ATCC 23745 was found to be 6.27 mg/kg.
For the compound `[O-][N+]1=C(c2ccccc2)C2=NCCN2c2cc(F)c(F)cc21` [Example 2, 1,2-Dihydro-7,8-difluoro-4-phenylimidazo[1,2-a]quinoxaline 5-oxide], the MIC is under 0.8 mg/L in [1]; 6.2 mg/L (≈ 20.7 µM) in [2]; 6.2 mg/L (≈ 20.7 µM) in [3]; 0.08 mg/L (≈ 0.267 µM) in experiment [4]; 0.6 mg/L (≈ 2 µM) with B. fragilis WS-1; 25 mg/L (≈ 83.5 µM) in [5]. Also, the MIC in experiment [6] (setting [13]) is 3.1 mg/L (≈ 10.4 µM); in [7] it was 12.5 mg/L (≈ 41.8 µM); in experiment [8], 6.2 mg/L (≈ 20.7 µM); in experiment [9], 12.5 mg/L (≈ 41.8 µM); with B. fragilis NCTC 10581 it was 0.6 mg/L (≈ 2 µM); in experiment [10] it was 6.2 mg/L (≈ 20.7 µM). The MIC is 25 mg/L (≈ 83.5 µM) in [11], 0.15 mg/L (≈ 0.501 µM) with B. fragilis NCTC 9343 and 0.6 mg/L (≈ 2 µM) in the experiment on B. fragilis NCTC 9344 (read-out: MIC). Also, the MBC in [4] (strain D (MZ-R)) was determined as 0.15 mg/L (≈ 0.501 µM); with B. fragilis WS-1, 0.6 mg/L (≈ 2 µM); with B. fragilis NCTC 10581, 0.6 mg/L (≈ 2 µM); in the experiment with B. fragilis NCTC 9343, 0.15 mg/L (≈ 0.501 µM); in the experiment on B. fragilis NCTC 9344 it was 0.6 mg/L (≈ 2 µM). The ED (1 log reduction) in the experiment with B. Fragilis ATCC 23745 is under 40 mg/kg.
Regarding `[O-][N+]1=C(c2ccccc2)C2=NCCN2c2nc(Cl)ccc21` [Example 3, 8-Chloro-1,2-dihydro-4-phenylimidazo[1,2-a]pyrido[3,2-e]-pyrazine 5-oxide], the MIC was under 0.8 mg/L in [1] (setting [12]); 100 mg/L (≈ 335 µM) in experiment [2]; 6.2 mg/L (≈ 20.8 µM) in experiment [3]; 3.1 mg/L (≈ 10.4 µM) in [4]; 6.2 mg/L (≈ 20.8 µM) in the experiment on B. fragilis WS-1; 100 mg/L (≈ 335 µM) in [5]. The MIC in experiment [6] (setting [13]) is 6.2 mg/L (≈ 20.8 µM); in [7], 50 mg/L (≈ 167 µM); in [8], 25 mg/L (≈ 83.7 µM); in experiment [9], 50 mg/L (≈ 167 µM); with B. fragilis NCTC 10581 it was 12.5 mg/L (≈ 41.8 µM); in experiment [10], under 0.8 mg/L. Further, the MIC was over 100 mg/L in experiment [11], 12.5 mg/L (≈ 41.8 µM) in the experiment with B. fragilis NCTC 9343 and 6.2 mg/L (≈ 20.8 µM) in the experiment with B. fragilis NCTC 9344 (read-out: MIC). Also, the MBC in experiment [4] (strain D (MZ-R)) amounted to 3.1 mg/L (≈ 10.4 µM); against B. fragilis WS-1, 6.2 mg/L (≈ 20.8 µM); in the experiment on B. fragilis NCTC 10581 it was 12.5 mg/L (≈ 41.8 µM); with B. fragilis NCTC 9343, 12.5 mg/L (≈ 41.8 µM); in the experiment on B. fragilis NCTC 9344 it was 6.2 mg/L (≈ 20.8 µM). Besides, the ED (1 log reduction) in the experiment on B. Fragilis ATCC 23745 is under 40 mg/kg.
